Results published in article PMC4955727 (Molecular bioSystems, 2016).
Where two headings read alike, the source gives them in different places.

What was measured:
[1] = test system: P-gp; details: cited from earlier work
[2] = molecular target: T1, P-gp (Homo sapiens, UniProt P08183); assay: Calcein-AM efflux assay in KB CH^R 8-5 cells; details: for P-gp efflux inhibitory activity (in words): calcein-AM and rhodamine 123 assays, 10 μM (Table 4); for inhibition at 10 min, 10 μM / inhibition at 10 µM: human, KB CH^R 8-5 cells; for inhibition at 10 µM: probe calcein-AM (0.5 μg/ml) and rhodamine 123 (0.5 μg/ml); for Calcein-AM Efflux % inhibition: 10 μM compound, 0.5 μM calcein-AM, 10 min, 37 °C
T1 sequence (P08183 whole entry): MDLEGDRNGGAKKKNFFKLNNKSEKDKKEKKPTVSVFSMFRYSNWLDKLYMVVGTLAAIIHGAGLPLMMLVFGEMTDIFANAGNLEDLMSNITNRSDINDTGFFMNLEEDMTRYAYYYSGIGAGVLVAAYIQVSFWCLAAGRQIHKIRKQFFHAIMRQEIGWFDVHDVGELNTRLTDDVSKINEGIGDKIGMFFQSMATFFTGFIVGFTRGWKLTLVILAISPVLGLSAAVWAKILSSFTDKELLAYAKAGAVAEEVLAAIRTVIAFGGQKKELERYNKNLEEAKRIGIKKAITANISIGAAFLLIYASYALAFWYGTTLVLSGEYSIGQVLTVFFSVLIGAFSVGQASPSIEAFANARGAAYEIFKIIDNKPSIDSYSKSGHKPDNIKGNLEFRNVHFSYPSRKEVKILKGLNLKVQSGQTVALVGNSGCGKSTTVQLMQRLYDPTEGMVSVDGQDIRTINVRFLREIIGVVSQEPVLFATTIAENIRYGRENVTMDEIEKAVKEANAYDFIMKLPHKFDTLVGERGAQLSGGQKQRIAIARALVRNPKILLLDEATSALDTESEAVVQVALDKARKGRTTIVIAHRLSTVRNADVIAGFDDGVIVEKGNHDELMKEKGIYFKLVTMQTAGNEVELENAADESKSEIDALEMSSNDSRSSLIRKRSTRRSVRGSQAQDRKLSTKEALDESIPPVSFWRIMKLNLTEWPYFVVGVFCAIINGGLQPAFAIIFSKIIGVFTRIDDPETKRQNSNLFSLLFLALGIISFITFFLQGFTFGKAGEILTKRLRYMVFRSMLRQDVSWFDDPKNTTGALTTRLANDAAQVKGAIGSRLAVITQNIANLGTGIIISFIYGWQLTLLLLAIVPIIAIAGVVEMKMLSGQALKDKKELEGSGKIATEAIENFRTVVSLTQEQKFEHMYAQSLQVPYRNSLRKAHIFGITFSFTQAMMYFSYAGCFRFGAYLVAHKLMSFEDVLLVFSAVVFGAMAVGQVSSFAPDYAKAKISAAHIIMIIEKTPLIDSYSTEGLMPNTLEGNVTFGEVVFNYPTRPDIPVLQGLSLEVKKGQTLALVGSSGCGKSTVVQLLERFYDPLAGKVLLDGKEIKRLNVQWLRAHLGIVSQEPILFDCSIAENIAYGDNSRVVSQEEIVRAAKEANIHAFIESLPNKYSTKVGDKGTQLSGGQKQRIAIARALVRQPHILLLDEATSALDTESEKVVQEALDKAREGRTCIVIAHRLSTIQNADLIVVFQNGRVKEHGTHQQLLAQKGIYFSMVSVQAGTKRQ

[3] = molecular target: T1, P-gp; assay: Rhodamine 123 efflux assay in KB CH^R 8-5 cells; details: for inhibition at 45 min, 10 µM: human, KB CH^R 8-5 cells, probe rhodamine 123 (0.5 μg/ml); for Rh123 % inhibition: 10 μM compound, 0.5 μg/ml rhodamine 123, 45 min, 37 °C
[4] = molecular target: T1, P-gp; assay: in vitro
[5] = test system: parental and P-gp overexpressing cell lines; assay: Cytotoxicity assay of quercetin and rutin alone; assay type: cell-based; details: concentrations up to 10 μM, flavonoid alone
[6] = molecular target: T1, P-gp
[7] = test system: KB 3-1 cells; assay: MTT cytotoxicity of paclitaxel with or without reversal agent, parental cells; assay type: cell-based
[8] = test system: KB CH^R 8-5 cells; assay type: cell-based
[9] = read-out: Actual IC50 (Literature) (A), ref Literature (source not given)

inhibition at 10 min, 10 μM [2] [%] | inhibition at 45 min, 10 µM [3] [%] | SMILES | IC50 [1, 9] [µM] | P-gp efflux inhibitory activity (in words) [2] | further results
– | – | O=C1C[C@@H](c2ccccc2)Oc2cc(O)cc(O)c21 [Pinocembrin] | 5.8 | – | –
– | – | COc1cc(C2Oc3cc([C@H]4Oc5cc(O)cc(O)c5C(=O)[C@@H]4O)ccc3OC2CO)ccc1O (some centres unmarked) [Silibinin] | 3.4 | moderate inhibitory activity | inhibition at 10 µM [4]: 71.4%; Calcein-AM Efflux % inhibition [2]: 63.75%
– | – | Oc1cc(O)c2c(c1)O[C@H](c1ccc(O)c(O)c1)[C@H](O)C2 [(-)-Epicatechin] | 0.4 | – | –
– | – | COc1cc2c(=O)c(-c3ccc(O)cc3)coc2cc1O [Glycitein] | 5.99 | – | –
– | – | COc1ccc([C@@H]2CC(=O)c3c(O)cc(O[C@@H]4O[C@H](CO[C@@H]5O[C@@H](C)[C@H](O)[C@@H](O)[C@H]5O)[C@@H](O)[C@H](O)[C@H]4O)cc3O2)cc1O [Hesperidin] | 6.2 | low inhibitory activity | Calcein-AM Efflux % inhibition [2]: 29.58%; Rh123 % inhibition [3]: 21.09%
– | – | COc1ccc([C@@H]2CC(=O)c3c(O)cc(O)cc3O2)cc1O [Hesperitin] | 20 | – | –
– | – | COc1cc2oc(-c3ccccc3)cc(=O)c2c(O)c1O [Negletein] | – | – | IC50 [1]: 6.4 µM
42.8 | 40.5 | O=c1c(O)c(-c2ccc(O)cc2O)oc2cc(O)cc(O)c12 [Morin] | 8.1 | low inhibitory activity | –
– | – | COc1cc(O)c2c(c1)O[C@H](c1ccccc1)CC2=O [Pinostrobin] | 5.4 | – | –
– | – | Oc1ccc2c(c1)OCO2 [Sesamol] | 0.3 | – | –
– | – | O=c1c(-c2ccc(O)cc2)coc2cc(O)cc(O)c12 [Genistein] | – | – | IC50 [1]: 6.9 µM
– | – | COc1cccc2c1C(=O)c1c(O)c3c(c(O)c1C2=O)C[C@@](O)(C(C)=O)C[C@@H]3O[C@H]1C[C@H](N)[C@H](O)[C@H](C)O1 [Daunorubicin, reference compound] | 1 | – | –
– | – | O=C(O[C@@H]1Cc2c(O)cc(O)cc2O[C@@H]1c1cc(O)c(O)c(O)c1)c1cc(O)c(O)c(O)c1 [(-)-Epigallocatechin gallate] | 43.8 | – | –
39.5 | 35 | O=c1cc(-c2ccc(O)cc2)oc2cc(O)cc(O)c12 [Apigenin] | 10 | low inhibitory activity | –
– | – | COc1cccc2c1C(=O)c1c(O)c3c(c(O)c1C2=O)C[C@@](O)(C(=O)CO)C[C@@H]3O[C@H]1C[C@H](N)[C@H](O)[C@H](C)O1 [Doxorubicin, reference compound] | 0.04 | – | –
– | – | Oc1cc(O)c2c(c1)O[C@H](c1cc(O)c(O)c(O)c1)[C@H](O)C2 [Epigallocatechin] | – | – | IC50 [1]: 118 µM
– | – | C[C@@H]1O[C@@H](OC[C@H]2O[C@@H](Oc3c(-c4ccc(O)c(O)c4)oc4cc(O)cc(O)c4c3=O)[C@H](O)[C@@H](O)[C@@H]2O)[C@H](O)[C@H](O)[C@H]1O [Rutin, 2-(3,4-dihydroxyphenyl)-5,7-dihydroxy-3-[α-L-rhamnopyranosyl-(1→6)-β-D-glucopyranosyloxy]-4H-chromen-4-one] | – | – | cell survival [5]: > 85%
– | – | COc1cc(O)c2c(=O)c(-c3ccc(O)cc3)coc2c1 [Prunetin] | 6.4 | – | –
– | – | O=C(O[C@@H]1Cc2c(O)cc(O)cc2O[C@@H]1c1ccc(O)c(O)c1)c1cc(O)c(O)c(O)c1 [(-)-Epicatechin 3-gallate] | 15.1 | – | Calcein-AM Efflux % inhibition [2]: 83.25%; IC50 [6]: 33 µM; P-gp efflux inhibitory activity (in words) [6]: moderate inhibitory activity; Rh123 % inhibition [3]: 80.56%

inhibition at 10 min, 10 μM [2] [%] | inhibition at 45 min, 10 µM [3] [%] | SMILES | IC50 [1, 9] [µM] | P-gp efflux inhibitory activity (in words) [2] | further results
– | – | CC(=O)O[C@H]1C(=O)[C@@]2(C)[C@H]([C@H](OC(=O)c3ccccc3)[C@]3(O)C[C@H](OC(=O)[C@H](O)[C@@H](NC(=O)c4ccccc4)c4ccccc4)C(C)=C1C3(C)C)[C@]1(OC(C)=O)CO[C@@H]1C[C@@H]2O [Paclitaxel] | 1.2 | – | IC50 ([7]; Homo sapiens, KB 3-1, read-out: IC50 ± SEM of paclitaxel): 0.04 ± 0.01 µM; FR (fold-resistance) ([7]; KB 3-1, paclitaxel alone): [1.0]; FR (fold-resistance) ([8]; KB Ch^R 8-5, paclitaxel alone, vs KB 3-1): [50.0]; IC50 ([8]; read-out: IC50 ± SEM of paclitaxel): 2 ± 0.2 µM
46 | 47.2 | Oc1ccc(-c2[o+]c3cc(O)cc(O)c3cc2O)cc1 [Pelargonidin] | 14 | moderate inhibitory activity | –
70.2 | 75.6 | C[C@@H]1O[C@@H](O[C@H]2[C@H](Oc3cc(O)c4c(c3)O[C@H](c3ccc(O)cc3)CC4=O)O[C@H](CO)[C@@H](O)[C@@H]2O)[C@H](O)[C@H](O)[C@H]1O [Naringin] | – | moderate inhibitory activity | –
78.7 | 77.2 | COc1ccc(-c2oc3cc(O)cc(O)c3c(=O)c2O)cc1O [Tamarixetin] | 10 | moderate inhibitory activity | IC50 [2]: 46 µM
– | – | Oc1cc(O)c2c(c1)O[C@H](c1cc(O)c(O)c(O)c1)[C@@H](O)C2 [Gallocatechin] | – | – | IC50 [1]: 136 µM
12.6 | 11.5 | O=c1cc(-c2ccc(O)c(O)c2)oc2cc(O)cc(O)c12 [Luteolin] | – | low inhibitory activity | IC50 [1]: 0.8 µM; inhibition at 10 µM [2]: ≤ 15%
– | – | O=C1C[C@@H](c2ccc(O)cc2)Oc2cc(O)cc(O)c21 [Naringenin] | 16 | – | –
– | – | O=c1cc(-c2ccccc2)oc2cc(O)cc(O)c12 [Chrysin] | 1.5 | – | –
– | – | COc1cc(-c2oc3cc(O)cc(O)c3c(=O)c2O)ccc1O [Isorhamnetin] | – | – | inhibition at 10 µM [4]: 19.5%; IC50 [1]: 0.34 µM; P-gp efflux inhibitory activity (in words) [6]: low inhibitory activity; Calcein-AM Efflux % inhibition ([6]; human): 23.05%
– | – | Oc1cc(O)c2c(c1)O[C@H](c1ccc(O)c(O)c1)[C@@H](O)C2 [(+)-Catechin] | 50 | – | –
16.8 | 13.1 | O=c1c(O)c(-c2ccc(O)c(O)c2)oc2cc(O)ccc12 [Fistein, Fisetin] | 16 | low inhibitory activity | inhibition at 10 µM [2]: ≤ 15%
– | – | COc1cc(/C=C/C(=O)CC(=O)/C=C/c2ccc(O)c(OC)c2)ccc1O [Curcumin] | 1 | – | –
– | – | O=C1C[C@@H](c2ccc(O)c(O)c2)Oc2cc(O)cc(O)c21 [Eriodictyol] | 50 | – | –
33.8 | 25.1 | O=c1c(O)c(-c2ccc(O)cc2)oc2cc(O)cc(O)c12 [Kaempferol] | 4.8 | low inhibitory activity | –
– | – | O=c1c(O)c(-c2ccc(O)c(O)c2)oc2cc(O)cc(O)c12 [Quercetin, 2-(3,4-dihydroxyphenyl)-3,5,7-trihydroxy-4H-chromen-4-one] | – | – | cell survival [5]: > 85%
– | – | COc1ccc(-c2cc(=O)c3c(OC)c(OC)c(OC)c(OC)c3o2)cc1 [Tangeritin] | 3 | low inhibitory activity | Calcein-AM Efflux % inhibition [2]: 14.23%; inhibition in calcein-AM and rhodamine-123 assays ([2]; 10 μM concentration, both calcein-AM and rhodamine-123 assay data): ≤ 15%; Rh123 % inhibition [3]: 12.76%

SMILES | inhibition at 10 min, 10 μM [2] [%] | inhibition at 45 min, 10 µM [3] [%] | IC50 [1, 9] [µM] | P-gp efflux inhibitory activity (in words) [2] | further results
COc1cc(O)c2c(=O)c(OC)c(-c3ccc(OC)c(OC)c3)oc2c1 [Retusin] | 6.43 | 3.06 | 12 | low inhibitory activity | inhibition at 10 µM [2]: ≤ 15%
O=c1c(O[C@@H]2O[C@H](CO)[C@@H](O)[C@H](O)[C@H]2O)c(-c2ccc(O)c(O)c2)oc2cc(O)cc(O)c12 [Isoquercitrin] | 19.8 | 18.4 | 24.3 | low inhibitory activity | –
O=c1c(O)c(-c2cc(O)c(O)c(O)c2)oc2cc(O)cc(O)c12 [Myricetin] | 57.2 | 55.8 | 5.9 | moderate inhibitory activity | –
O=c1cc(-c2ccccc2)oc2cc(O)c(O)c(O)c12 [Baicalein] | 11 | 7.54 | 1.5 | low inhibitory activity | inhibition at 10 µM [2]: ≤ 15%
O=c1c(O)cc([C@H]2Oc3cc(O)cc(O)c3C[C@H]2O)cc2c([C@H]3Oc4cc(O)cc(O)c4C[C@H]3O)cc(O)c(O)c12 [Theaflavine] | 88.8 | 83.2 | 60 | very effective P-gp efflux inhibitory activity | IC50 [2]: 20 µM
